Reference: publication PMC10511244 (Nature, 2022)

Test system: AS4.3, AS8.2, AS8.4, and AU2.1 TCRs
Test: CD69 upregulation with peptide-pulsed K562 cells expressing HLA-B*27:05
Type: cell-based, human
Conditions: SKW-3 T cells expressing AS4.3, AS8.2, AS8.4, and AU2.1 TCRs; n = 3 biological replicates

Sequence	T cell response (CD69 upregulation) when peptide presented by HLA-B*27:05-expressing K562 cells
GQVMVVAPR [RNASEH2B^self]	robust T cell responses
LRQMLQAPH [MPP4^self]	robust T cell responses
